Article PMC12257542, “A Radiolabeled Photoswitchable G Protein-Coupled Receptor Antagonist Enlightens Ligand Binding Kinetics Associated with Photoswitching” (Journal of the American Chemical Society, 2025)
Values joined by “and” are separate entries in the source; they are usually repeats but may differ in a detail not shown here. Identical values can stand only once. Like-named read-outs stand apart in the source and are kept apart here.

Assays:
[1] = UV-vis spectra of trans and PSS cis states in HBSS buffer; format: physicochemical; settings: 25 μM in HBSS buffer containing 1% DMSO
Experimental: (§1) Experimental procedures – Photochemistry
UV−Vis spectra were recorded using a Thermo-scientific Evolution 201 PC spectrophotometer equipped with a thermostated cell holder set at 20 °C. Fits of UV−vis spectroscopy data were generated using Prism 10.1.0. Illumination for almost all photochemical experiments was executed using a Sutter instruments Lambda LS with a 300 W full-spectrum lamp connected to a Sutter instruments Lambda 10-3 optical filter changer equipped with 360 ± 10 nm, 434 ± 9 nm 494 ± 9 nm, or a Lambda 721 optical beam combiner system equipped with 365 ± 11 nm and 506 ± 14 nm filter. The light intensity used for the lambda 10-3 optical filter is 0.93 mW/mm2 using the 360 ± 20 nm filter, 0.79 mW/mm2 for the 434 ± 9 nm filter, 0.77 mW/mm2 for the 494 ± 9 nm filter as measured using a Thorlabs PM16−401 power meter. The light intensity used for the lambda 721 optical beam combiner is 200 mW using the 365 ± 11 nm filter and 60 mW for the 506 ± 12 nm filter. For photochemical analyses, illuminations were performed in Hellma Suprasil quartz 114QS cuvettes. For the dynamic illuminations, a 4-way cuvette holder (Avantes) was used. The left outlet of the holder is connected to an Avantes AvaLight-DH-S-BAL Deuterium lamp. The right outlet is connected through a fiber to an AvaSpec UV/Vis spectrometer. The lower outlet is connected to a Lambda 721 optical beam combiner system equipped with 365 ± 11 nm and 506 ± 14 nm filter illumination means. The upper outlet is covered with a black cap. The temperature of the solution in the cuvette (20 °C) is controlled by Q-blue Wireless Temperature Control software. […]
The typical distance […]
between light source and vial or cuvette was 2 cm.

[2] = Photostationary state area percentages by LC-MS at the isosbestic point; format: physicochemical; settings: for PSScis (area %cis): after illumination of trans isomer with 365 ± 10 nm at 1 mM in DMSO for 10 min
[3] = Thermal relaxation of PSS cis states (Arrhenius extrapolation); format: physicochemical; settings: approximate; HBSS buffer + 1% DMSO, extrapolated to 20 °C
Experimental: as §1
UV−Vis spectra were recorded using a Thermo-scientific Evolution 201 PC spectrophotometer equipped with a thermostated cell holder set at 20 °C. Fits of UV−vis spectroscopy data were generated using Prism 10.1.0. Illumination for almost all photochemical experiments was executed using a Sutter instruments Lambda LS with a 300 W full-spectrum lamp connected to a Sutter instruments Lambda 10-3 optical filter changer equipped with 360 ± 10 nm, 434 ± 9 nm 494 ± 9 nm, or a Lambda 721 optical beam combiner system equipped with 365 ± 11 nm and 506 ± 14 nm filter. The light intensity used for the lambda 10-3 optical filter is 0.93 mW/mm2 using the 360 ± 20 nm filter, 0.79 mW/mm2 for the 434 ± 9 nm filter, 0.77 mW/mm2 for the 494 ± 9 nm filter as measured using a Thorlabs PM16−401 power meter. The light intensity used for the lambda 721 optical beam combiner is 200 mW using the 365 ± 11 nm filter and 60 mW for the 506 ± 12 nm filter. For photochemical analyses, illuminations were performed in Hellma Suprasil quartz 114QS cuvettes. For the dynamic illuminations, a 4-way cuvette holder (Avantes) was used. The left outlet of the holder is connected to an Avantes AvaLight-DH-S-BAL Deuterium lamp. The right outlet is connected through a fiber to an AvaSpec UV/Vis spectrometer. The lower outlet is connected to a Lambda 721 optical beam combiner system equipped with 365 ± 11 nm and 506 ± 14 nm filter illumination means. The upper outlet is covered with a black cap. The temperature of the solution in the cuvette (20 °C) is controlled by Q-blue Wireless Temperature Control software.
Thermal relaxation experiments and Arrhenius extrapolations were performed according to Priimagi et al20, using a compound concentration of 25 μM in HBSS +1% DMSO and temperatures of 50, 60, and 70 °C. Illuminations for pharmacological experiments were performed in cylindrical clear glass vials with a volume of 4.5 mL. The typical distance between light source and vial or cuvette was 2 cm.

[4] = target: T1, H3R (Homo sapiens, UniProt Q9Y5N1); assay: [3H]NAMH competition radioligand binding on cell homogenates overexpressing H3R; settings: for Fold Ki shift: (high-affinity state)/(low-affinity state); for Ki: [3H]NAMH competition, n = 3
T1 sequence (Q9Y5N1 whole entry): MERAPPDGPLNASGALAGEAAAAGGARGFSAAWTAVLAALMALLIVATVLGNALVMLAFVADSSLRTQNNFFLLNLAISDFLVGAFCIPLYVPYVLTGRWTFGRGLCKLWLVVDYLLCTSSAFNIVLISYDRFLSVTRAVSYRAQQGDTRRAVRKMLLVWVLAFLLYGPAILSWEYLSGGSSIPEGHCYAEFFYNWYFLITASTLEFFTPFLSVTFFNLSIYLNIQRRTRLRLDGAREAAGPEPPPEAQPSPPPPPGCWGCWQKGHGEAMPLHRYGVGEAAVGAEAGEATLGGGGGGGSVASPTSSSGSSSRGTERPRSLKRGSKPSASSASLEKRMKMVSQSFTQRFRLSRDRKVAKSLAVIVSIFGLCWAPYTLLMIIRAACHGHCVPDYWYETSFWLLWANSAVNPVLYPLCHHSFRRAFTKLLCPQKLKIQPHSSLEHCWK

[5] = target: T1, H3R; assay: Association and dissociation radioligand binding experiments with [3H]3f; settings: for dissociation t 1/2: t1/2 = ln 2/k off; for Kd: from k off/k on, read-out: pK d(k in) calculated kinetic affinity (converted)
Experimental: (§2) To determine non-specific
(§3) specific binding from the total binding.
(§4) intervals ranging from 0-20 minutes.
(§5) was measured as described above.
(§6) model to obtain Kd values.

[6] = target: T1, H3R; format: binding
Experimental: as §2, §3, §4, §5, §6

[7] = target: T1, H3R; assay: Functional H3R NanoBiT-PKA (cAMP sensor) assay in transiently transfected HEK293T cells; format: cell-based; settings: inhibition of forskolin-stimulated cAMP signal, agonist alone
[8] = target: T1, H3R; settings: ref Hauwert et al., cited from earlier work
[9] = parameters: method as in Hauwert et al.; settings: 25 μM in HBSS buffer containing 1% DMSO; ref Hauwert et al.; cited from earlier work
[10] = parameters: method as in Hauwert et al.; settings: ref Hauwert et al., cited from earlier work
[11] = parameters: method as in Hauwert et al.; settings: approximate, extrapolated to 20 °C; ref Hauwert et al.; cited from earlier work
[12] = target: hH3R (Homo sapiens, UniProt Q9Y5N1); assay: Competition binding of non-labeled ligands with trans-[3H]3f on hH3R-expressing cell homogenates
hH3R, sequence (Q9Y5N1 whole entry): as above

[13] = illumination of PSS cis state with 506 ± 20 nm at 1 mM in DMSO for 10 min
[14] = ↓ lower affinity of PSS cis state than trans
[15] = ↑ higher affinity of PSS cis state than trans

Cc1nn(C2CCOCC2)c(C)c1/N=N/c1ccc(O[C@H]2C[C@H](N3CCCCC3)C2)cc1 [Compound 3c]
λmax cis [1]: 440 nm | λmax trans [1]: 349 nm | PSScis (area %cis) [2]: 94 area % | PSStrans (area %trans) [2, 13]: 95 area % | Half-life (thermal relaxation of PSS cis state) [3]: 600 h | Fold Ki shift [4, 14]: 20.0 ↓ fold

[3H]C([3H])([3H])N1CCC(n2nc(C)c(/N=N/c3ccc(O[C@H]4C[C@H](N5CCCCC5)C4)cc3)c2C)CC1 [[^3H]3f]
time at which binding to H3R reaches equilibrium ([5]; 0.5 nM trans state): 15 min | kon ([5]; PSS cis state (preilluminated trans-[3H]3f)): 217000 M⁻¹ s⁻¹ | dissociation t 1/2 ([5]; PSS cis state, clobenpropit): 6.2 ± 0.2 min | dissociation t 1/2 ([5]; PSS cis state, clobenpropit, listed as [^3H]3f-PSS cis): 6.2 ± 0.4 min | koff ([5]; PSS cis state, dissociation initiated with clobenpropit): 0.00183 s⁻¹ | Kd ([5]; PSS cis state): 12.6 nM | fold lower k on value compared to trans-[3H]3f ([5]; PSS cis versus trans): 10 fold | kon ([5]; trans state, 0.5 nM): 2.15e+06 M⁻¹ s⁻¹ | dissociation t 1/2 ([5]; trans state, clobenpropit (10 μM)): 4.9 ± 0.4 min | koff ([5]; trans state, dissociation initiated with 10 μM clobenpropit): 0.0025 s⁻¹ | Kd ([5]; trans state): 1.26 nM | H3R binding remaining after exposure to 365 nm light ([6]; prebound trans state 0.5 nM, no competitor present): approximately 0% | dissociation t 1/2 ([6]; prebound trans state, 365 nm light, t1/2 = ln 2/k off): 48 ± 12 s | fold faster dissociation kinetics upon 365 nm illumination ([6]; prebound trans, 365 nm light versus dissociation of dark trans-[3H]3f): 6.2 fold

c1cc(Cc2cnc[nH]2)ccn1 [immethridine, reference compound]
EC50 [7]: 0.794 nM

c1ccc(/N=N/c2ccc(O[C@H]3C[C@H](N4CCCCC4)C3)cc2)cc1 [Compound 2]
λmax cis [1]: 425 nm | λmax trans [1]: 350 nm | PSScis (area %cis) [2]: 97 area % | PSStrans (area %trans) ([2]; illumination of PSS cis state with 434 ± 20 nm at 1 mM in DMSO for 10 min): 74 area % | Half-life (thermal relaxation of PSS cis state) [3]: 48 h | Fold Ki shift [4, 15]: 4 fold and 4.0 ↑ fold | Ki ([4]; pKi PSScis ± SEM, PSS cis state): 2.51 nM

c1ccc(/N=N/c2ccc(OCCCN3CCCCC3)cc2)cc1 [Compound 1]
pKi PSScis ± SEM ([8]; PSS cis state, [3H]NAMH competition): 8.1 ± 0.1 | pKi trans ± SEM ([8]; trans isomer, [3H]NAMH competition): 7.3 ± 0.1 | Fold Ki shift [8, 15]: 6.3 ↑ fold | λmax cis [9]: 432 nm | λmax trans [9]: 344 nm | PSScis (area %cis) ([10]; after illumination of trans isomer with 365 ± 10 nm): 97 area % | PSStrans (area %trans) ([10]; illumination of PSS cis state with 434 ± 20 nm): 68 area % | Half-life (thermal relaxation of PSS cis state) [11]: 264 h

c1nc(CC2CCNCC2)c[nH]1 [immepip, reference compound]
Ki [12]: 3.16 nM

Cc1nn(C2CCCCC2)c(C)c1/N=N/c1ccc(O[C@H]2C[C@H](N3CCCCC3)C2)cc1 [Compound 3b]
λmax cis [1]: 440 nm | λmax trans [1]: 351 nm | PSScis (area %cis) [2]: 88 area % | PSStrans (area %trans) [2, 13]: 94 area % | Half-life (thermal relaxation of PSS cis state) [3]: 170 h | Fold Ki shift [4, 14]: 12.6 ↓ fold

Cc1nn(C2CCNCC2)c(C)c1/N=N/c1ccc(O[C@H]2C[C@H](N3CCCCC3)C2)cc1 [Compound 3e]
λmax cis [1]: 434 nm | λmax trans [1]: 346 nm | PSScis (area %cis) [2]: 99 area % | PSStrans (area %trans) [2, 13]: 92 area % | Half-life (thermal relaxation of PSS cis state) [3]: 696 h | Fold Ki shift [4, 14]: 25.1 ↓ fold | Ki ([4]; pKi trans ± SEM, trans isomer): 0.501 nM

Cc1nn(C)c(C)c1/N=N/c1ccc(O[C@H]2C[C@H](N3CCCCC3)C2)cc1 [Compound 3a]
λmax cis [1]: 439 nm | λmax trans [1]: 347 nm | PSScis (area %cis) [2]: 95 area % | PSStrans (area %trans) [2, 13]: 93 area % | Half-life (thermal relaxation of PSS cis state) [3]: 432 h | Fold Ki shift [4, 14]: 7.9 ↓ fold | fold improved Ki value of trans isomer compared to trans-2 ([4]; trans isomers): more than 10 fold
